Source: article PMC4683533, “Discovery of novel INK4C small-molecule inhibitors to promote human and murine hematopoietic stem cell ex vivo expansion” (Scientific Reports, 2015)
“Also recorded” adds a separate entry of the source.

Legend:
[1] = test system: c-Kit enriched BM cells (primary hematopoietic cells); assay: apoptosis analysis by Annexin V staining; assay type: cell-based; details: effective concentration (20 μM), 5 days, compared with negative control group
Procedure: First, a cell-proliferation assay was performed on the immortalized myeloblast-like cell line 32D cells to evaluate general cytotoxicity. […] We also evaluated cytotoxicity using primary hematopoietic cells.
Figure 6 Cytotoxicity assessment of top p18SMI compounds. (A) Cell proliferation assay was performed on 32D cells to evaluate general cytotoxicity. The cell survival was determined by the MTT assay. (B) Apoptosis statistics analysis of cultured c-Kit enriched BM cells which were cultured with cytokine plus 20 μM compound 40 or DMSO. Uncultured bone marrow cells were irradiated by UV to serve as positive control. Apoptosis was checked by Annexin V staining on hematopoietic cells. (C,D) Proliferation effect of compound 40 on leukemia cell lines KG-1 and KG-1a. The cell survival was determined with the MTT assay. Data is mean ± SEM for all experiments of two or more and were performed in duplicate or triplicate.
c-Kit enriched BM cells were cultured for 5 days with cytokine combination plus compound 40 or DMSO. […] Apoptosis and cell death were measured by AnnexinV and DAPI staining according to the manufacturer’s instructions in the Annexin V-FITC Apoptosis Detection Kit (BD Biosciences). Apoptosis was measured on an FACS analyzer (LSR Fortessa, BD Biosciences). The data was analyzed using FlowJo software (Treestar, Inc.).

[2] = test system: human cord blood CD34+ cells (CD34+CD49f+ cells); assay: human cord blood CD34+ cell ex vivo culture and screen; assay type: cell-based
Procedure: Based on our study of murine HSCs, we further tested whether these p18SMIs could expand human cord blood CD34^+ cells in ex vivo culture. […] We cultured human cord blood CD34^+ cells for 7 days in HSCs expansion media in the presence of 200 nM of p18SMIs, and then analyzed the percentage and absolute number of CD34^+CD49f^+ cells by flow cytometry. We screened 40 p18SMIs, of which14 compounds could increase the number of CD34^+CD49f^+ cells compared with the control group (Fig. S6). […] Then we conducted a concentration gradient assay on top three p18SMIs with ED50 less than 10 nM (compounds 22, 40 and 41). […] Only in specific doses could they show their expansion effect on human HSCs (Fig. 4B).
Human cord blood samples were collected from consenting donors according to ethically approved procedures at Tianjin Central Hospital of Gynecology Obstetrics (Tianjin, China), under a protocol approved by the Ethical Committee on Medical Research at the Institute of Hematology. Human CD34^+ cord blood cells were isolated using human CD34 MicroBead Kit (MiltenyiBiotec) according to the manufacturer’s protocol after settling red cells with HES and red cells lysis with ACK Lysis Buffer.
Human CD34^+ cells were cultured in expansion medium consisting of StemSpan SFEM (StemCell Technologies) supplemented with 100 ng/mL human stem cell factor (SCF, PeproTech), 50 ng/mL human thrombopoietin (TPO, PeproTech), 100 ng/mL human FMS-like trysine kinase 3 ligand (Flt3L, PeproTech). Human CD34^+ cells were resuspended in expansion medium (5 × 10^4 cells/mL) before being aliquoted in 96-well plates (Costar, Corning Incorporated). Compounds, all with a final concentration of 200 nM, were dissolved in DMSO and added immediately in cell suspension after plating. The final concentration of DMSO in the control group was the same as in the compounds-treated group. Cells were cultured at 37 °C in 5% CO2. Based on the results of primary screening upon human cells and the results of ED50, we chose three compounds for further experiments. The expansion medium was changed to StemSpan SFEM (StemCell Technologies) supplemented with 100 ng/mL human stem cell factor (SCF, PeproTech), 100 ng/mL human thrombopoietin (TPO, PeproTech), 100 ng/mL human FMS-like trysine kinase 3 ligand (Flt3L, PeproTech) and 100 ng/mL human interleukin-6 (IL-6, PeproTech) for better expansion effect. The incubation condition was consistent with before.
Phenotypes analysis of cultured cells was performed on a BD FACS Array (Becton Dickinson Biosciences) using a combination of the following antibodies: APC anti-CD34 (BD Biosciences), PE anti-CD49f (BD Biosciences). Stained cells were washed once with PBS and then measured and analyzed on an FACS analyzer (FACSArray, BD Biosciences).

[3] = test system: c-Kit-enriched BM cells (progenitor cells, HSPCs, LT-HSCs); assay: CFSE cell division assay; assay type: cell-based, mouse; details: LT-HSC
Text: We have previously shown that deficiency of p18 may enhance HSCs expansion by inducing primitive phenotypes after each cell division in vivo[19]. To obtain direct evidence that compound 40 promotes primitive phenotypes after each cell division, we measured cell divisions in distinct immunophenotypically-defined populations of cells treated with p18SMI compound. 5- (and 6-) carboxy-fluorescein diacetatesuccinimidylester (CFSE) dye was used to label the c-Kit-enriched BM cells before culture. Surface markers for progenitor cells, HSPCs and LT-HSCs were used to co-stain the BM cells that were harvested 5 days after treatment with the p18SMI compound. The number of initial cell divisions was measured based on the intensity of CFSE in each cell population. Consistent with previous phenotype results, little effect on the progenitor cells and HSPCs populations was observed (Fig. 5A).
Prior to culture, cKit-enriched BM cells (1 × 10^6/mL) were labeled with 5- (and 6-) carboxy-fluorescein diacetatesuccinimidylester (CFSE) dye (3 μM, Molecular Probes) in PBS supplemented with 0.1% bovine serum albumin. Labeling was performed in the dark at 37 °C for 10 min. […] During cell division, CFSE is distributed equally between daughter cells so that the generation of cells could be reflected by the content of CFSE and measured by the intensity of fluorescence. […]

SMILES: O=C([O-])c1ccc(S(=O)(=O)NC2CCCCC2)cc1.[Na+] [Compound 40, sodium 4-(N-cyclohexylsulfamoyl)benzoate]
- cytotoxicity / apoptotic cell death in primary hematopoietic cells (HSCs) [1]: did not show significant cytotoxicity; also recorded: did not increase apoptotic cell death; also recorded: not cytotoxic
- increase in the absolute number of CD34+CD49f+ cells ([2]; 200 nM, 7 days in HSCs expansion media, versus control group): > 30%
- expansion of human HSCs in concentration gradient assay ([2]; dose response, Fig. 4B): concentration related
- % Divided [3]: 65.2%
